Patent publication US20230295162A1 (EÖTVÖS LORÁND TUDOMÁNYEGYETEM, priority 2020, published 2023)
Like-named read-outs stand apart in the source and are kept apart here.

Columns and labels:
[1] = system: Panc-1 human cell line; test: Cytotoxicity on Panc-1, xCELLigence SP, IC50 after 24 h, 48 h, 72 h and 96 h (Example 22)
[2] = system: EBC-1 lung cancer cell line; test: High-throughput screening, CellTiter-Glo cell viability assay at 100 nM; assay type: cell-based, human; conditions: Homo sapiens, EBC-1, HTS, compounds at 100 nM, 72 h, read-out: cytotoxicity expressed in IC50, EBC-1 (results of High throughput screening)
[3] = system: H2228 lung cancer cell line; test: as above; assay type: cell-based, human; conditions: Homo sapiens, NCI-H2228, HTS, compounds at 100 nM, 72 h, read-out: cytotoxicity expressed in IC50, H2228 (results of High throughput screening)
[4] = system: SCC-25 (tongue, squamous cell carcinoma) cells; test: Cell viability assay, CellTiter-Glo (Example 21); assay type: cell-based, human; conditions: 72 h treatment
Procedure, shortened: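 Cell viability of SCC-25 cells was assessed by CellTiter-Glo luminescence after compound exposure. Cells were plated at 1000 cells/well, a density chosen for their size and growth rate, on white flat-bottom 96 well plates. Signal was recorded on a microplate reader, and dose-response curves were fitted in GraphPad Prism by four-parameter variable-slope non-linear regression.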

[5] = system: Panc-1 (pancreas, carcinoma) cells; test: Cell viability assay, CellTiter-Glo (Example 21); assay type: cell-based, human; conditions: 72 h treatment
Procedure, shortened: (§1)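 Cells were seeded at optimized densities (Panc-1 750, FaDu 1000, Detroit 562 and MDA-MB-453 1500 cells/well), then treated with compound. Viability was read by CellTiter-Glo luminescence. Dose-response curves were fitted by four-parameter variable-slope non-linear regression.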

[6] = system: PC-3 (prostate, adenocarcinoma) cells; test: Cell viability assay, CellTiter-Glo (Example 21); assay type: cell-based, human; conditions: 72 h treatment
Procedure, shortened: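 Cancer cell viability was assessed by luminescence using Promega's CellTiter-Glo® kit. PC-3 cells, plated at a density of 1000 cells/well in white flat-bottom 96 well plates, were exposed to test compounds, after which signals were measured on a microplate reader and dose-response curves fitted by four-parameter variable-slope non-linear regression in GraphPad Prism 8.4.2.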

[7] = system: Capan-1 (pancreas, adenocarcinoma) cells; test: Cell viability assay, CellTiter-Glo (Example 21); assay type: cell-based, human; conditions: 72 h treatment
Procedure, shortened: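 Viability of Capan-1 pancreatic adenocarcinoma cells was assessed using Promega's CellTiter-Glo® luminescence kit. Cells were plated at 1000 cells/well in white, flat-bottom 96 well plates, treated, then luminescence was recorded on a BioTek Synergy 2 reader. Dose-response curves were fitted in GraphPad Prism 8.4.2 with a four-parameter variable-slope non-linear regression.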

[8] = system: MDA-MB-231 (breast, adenocarcinoma) cells; test: Cell viability assay, CellTiter-Glo (Example 21); assay type: cell-based, human; conditions: 72 h treatment
Procedure, shortened: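 Viability of MDA-MB-231 cells was quantified by luminescence using Promega's CellTiter-Glo® kit per manufacturer instructions. Cells, plated at a size- and growth-optimized density of 1500 cells/well in white flat-bottom 96 well plates, were treated and then read on a BioTek Synergy 2 reader; dose-response curves used four-parameter variable-slope non-linear regression in GraphPad Prism 8.4.2.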

[9] = system: EBC-1 (lung, squamous cell carcinoma) cells; test: Cell viability assay, CellTiter-Glo (Example 21); assay type: cell-based, human; conditions: 72 h treatment
Procedure, shortened: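 The CellTiter-Glo luminescent cell viability assay (Promega) was used to test compound effects on EBC-1 cells. Cells were plated at 1000 cells/well on white flat-bottom 96 well plates, treated, then read for luminescence on a microplate reader. Dose-response curves were fitted by four-parameter variable-slope non-linear regression.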

[10] = system: LNCaP (prostate, carcinoma) cells; test: Cell viability assay, CellTiter-Glo (Example 21); assay type: cell-based, human; conditions: 72 h
Procedure, shortened: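 Flat-bottomed white 96 well plates received 1500 LNCaP cells per well, a density chosen to suit the cells' size and growth rate. Following compound treatment, viability was measured by CellTiter-Glo® luminescence per the manufacturer's protocol, with signal recorded on a BioTek Synergy 2 reader. GraphPad Prism 8.4.2 generated dose-response curves using a four-parameter, variable-slope non-linear regression model.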

[11] = system: DU 145 (prostate, carcinoma) cells; test: Cell viability assay, CellTiter-Glo (Example 21); assay type: cell-based, human; conditions: 72 h
Procedure, shortened: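 DU 145 prostate carcinoma cells were plated at 1000 cells/well in white flat-bottom 96 well plates and exposed to compound. Viability was then determined by CellTiter-Glo® luminescence on a BioTek Synergy 2 reader, and dose-response curves were fitted in GraphPad Prism 8.4.2 with a four-parameter variable-slope non-linear regression.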

[12] = system: Detroit 562 (pharynx, carcinoma) cells; test: Cell viability assay, CellTiter-Glo (Example 21); assay type: cell-based, human; conditions: 72 h treatment
Procedure, shortened: as §1

[13] = system: FaDu (pharynx, squamous cell carcinoma) cells; test: Cell viability assay, CellTiter-Glo (Example 21); assay type: cell-based, human; conditions: 72 h treatment
Procedure, shortened: as §1

[14] = system: MIA PaCa-2 (pancreas, carcinoma) cells; test: Cell viability assay, CellTiter-Glo (Example 21); assay type: cell-based, human; conditions: 72 h treatment
Procedure, shortened: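 Cell viability of MIA PaCa-2 cells was assessed by CellTiter-Glo® luminescence (Promega, Madison, WI, USA). Cells were plated at 1000 cells/well, a density chosen for their size and growth rate, in white flat-bottomed 96 well plates. After treatment, the signal was recorded on a BioTek microplate reader, and dose-response curves were fitted in GraphPad Prism 8.4.2 with a four-parameter variable-slope non-linear regression.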

[15] = system: MDA-MB-453 (breast, carcinoma) cells; test: Cell viability assay, CellTiter-Glo (Example 21); assay type: cell-based, human; conditions: 72 h treatment
Procedure, shortened: as §1

[16] = system: PANC-1 (human pancreatic carcinoma) cells; test: Impedance-based viability assay (xCELLigence SP), long treatment; assay type: cell-based; conditions: 72 h, read-out: cytotoxicity expressed in IC50, PANC-1
Description: (Gibco®/Invitrogen Corporation, New York, NY, USA).
Data obtained from each experiment represent mathematical averages.

O=C1C2=C(CCN(Cc3cccc(F)c3)C2)N2CCN=C2N1Cc1ccc(C(F)(F)F)cc1 [I/3, reference compound]
IC50 ([1]; PANC-1, 72 h, read-out: IC50 (72 h) [nM]): 45.3 ± 3.34 nM | IC50 ([1]; PANC-1, 96 h, read-out: IC50 (96 h) [nM]): 22.6 ± 0.856 nM | IC50 [2]: < 100 nM | IC50 [3]: < 100 nM | SCC-25 (tongue, squamous cell carcinoma) cell viability (% of control) ([4]; 3.7 nM): 101.0 ± 4.9 % of control | SCC-25 (tongue, squamous cell carcinoma) cell viability (% of control) ([4]; 11.1 nM): 95.1 ± 5.1 % of control | SCC-25 (tongue, squamous cell carcinoma) cell viability (% of control) ([4]; 100 nM): 34.9 ± 3.9 % of control | SCC-25 (tongue, squamous cell carcinoma) cell viability (% of control) ([4]; 300 nM): 33.1 ± 1.7 % of control | Panc-1 (pancreas, carcinoma) cell viability (% of control) ([5]; 3.7 nM): 105.8 ± 4.0 % of control | Panc-1 (pancreas, carcinoma) cell viability (% of control) ([5]; 11.1 nM): 105.7 ± 4.2 % of control | Panc-1 (pancreas, carcinoma) cell viability (% of control) ([5]; 100 nM): 59.9 ± 17.3 % of control | Panc-1 (pancreas, carcinoma) cell viability (% of control) ([5]; 300 nM): 53.9 ± 6.5 % of control | PC-3 (prostate, adenocarcinoma) cell viability (% of control) ([6]; 3.7 nM): 100.8 ± 4.0 % of control | PC-3 (prostate, adenocarcinoma) cell viability (% of control) ([6]; 11.1 nM): 110.2 ± 4.1 % of control | PC-3 (prostate, adenocarcinoma) cell viability (% of control) ([6]; 100 nM): 34.7 ± 1.0 % of control | PC-3 (prostate, adenocarcinoma) cell viability (% of control) ([6]; 300 nM): 32.3 ± 2.6 % of control | Capan-1 (pancreas, adenocarcinoma) cell viability (% of control) ([7]; 3.7 nM): 102.7 ± 6.9 % of control | Capan-1 (pancreas, adenocarcinoma) cell viability (% of control) ([7]; 11.1 nM): 101.5 ± 5.5 % of control | Capan-1 (pancreas, adenocarcinoma) cell viability (% of control) ([7]; 100 nM): 38.7 ± 2.8 % of control | Capan-1 (pancreas, adenocarcinoma) cell viability (% of control) ([7]; 300 nM): 33.0 ± 2.2 % of control | MDA-MB-231 (breast, adenocarcinoma) cell viability (% of control) ([8]; 3.7 nM): 101.4 ± 1.4 % of control | MDA-MB-231 (breast, adenocarcinoma) cell viability (% of control) ([8]; 11.1 nM): 99.8 ± 1.8 % of control | MDA-MB-231 (breast, adenocarcinoma) cell viability (% of control) ([8]; 100 nM): 56.5 ± 3.4 % of control | MDA-MB-231 (breast, adenocarcinoma) cell viability (% of control) ([8]; 300 nM): 53.7 ± 3.1 % of control | EBC-1 (lung, squamous cell carcinoma) cell viability (% of control) ([9]; 3.7 nM): 97.8 ± 4.0 % of control | EBC-1 (lung, squamous cell carcinoma) cell viability (% of control) ([9]; 11.1 nM): 96.3 ± 1.4 % of control | EBC-1 (lung, squamous cell carcinoma) cell viability (% of control) ([9]; 100 nM): 25.1 ± 0.2 % of control | EBC-1 (lung, squamous cell carcinoma) cell viability (% of control) ([9]; 300 nM): 22.2 ± 0.1 % of control | LNCaP cell viability ([10]; 3.7 nM): 98.7 ± 7.4 % of control | LNCaP cell viability ([10]; 11.1 nM): 95.0 ± 7.4 % of control | LNCaP cell viability ([10]; 100 nM): 13.8 ± 1.7 % of control | LNCaP cell viability ([10]; 300 nM): 12.7 ± 1.2 % of control | DU 145 cell viability ([11]; 3.7 nM): 102.0 ± 3.5 % of control | DU 145 cell viability ([11]; 11.1 nM): 95.9 ± 5.1 % of control | DU 145 cell viability ([11]; 100 nM): 7.1 ± 1.6 % of control | DU 145 cell viability ([11]; 300 nM): 7.2 ± 1.2 % of control | Detroit 562 (pharynx, carcinoma) cell viability (% of control) ([12]; 3.7 nM): 99.5 ± 8.4 % of control | Detroit 562 (pharynx, carcinoma) cell viability (% of control) ([12]; 11.1 nM): 44.3 ± 11.0 % of control | Detroit 562 (pharynx, carcinoma) cell viability (% of control) ([12]; 100 nM): 28.9 ± 5.3 % of control | Detroit 562 (pharynx, carcinoma) cell viability (% of control) ([12]; 300 nM): 28.7 ± 4.1 % of control | FaDu (pharynx, squamous cell carcinoma) cell viability (% of control) ([13]; 3.7 nM): 101.6 ± 3.4 % of control | FaDu (pharynx, squamous cell carcinoma) cell viability (% of control) ([13]; 11.1 nM): 100.9 ± 5.9 % of control | FaDu (pharynx, squamous cell carcinoma) cell viability (% of control) ([13]; 100 nM): 26.2 ± 7.9 % of control | FaDu (pharynx, squamous cell carcinoma) cell viability (% of control) ([13]; 300 nM): 22.4 ± 5.9 % of control | MIA PaCa-2 (pancreas, carcinoma) cell viability (% of control) ([14]; 3.7 nM): 107.1 ± 16.4 % of control | MIA PaCa-2 (pancreas, carcinoma) cell viability (% of control) ([14]; 11.1 nM): 105.2 ± 3.4 % of control | MIA PaCa-2 (pancreas, carcinoma) cell viability (% of control) ([14]; 100 nM): 17.5 ± 7.9 % of control | MIA PaCa-2 (pancreas, carcinoma) cell viability (% of control) ([14]; 300 nM): 17.2 ± 7.5 % of control | MDA-MB-453 (breast, carcinoma) cell viability (% of control) ([15]; 3.7 nM): 110.3 ± 7.7 % of control | MDA-MB-453 (breast, carcinoma) cell viability (% of control) ([15]; 11.1 nM): 97.0 ± 13.3 % of control | MDA-MB-453 (breast, carcinoma) cell viability (% of control) ([15]; 100 nM): 33.2 ± 2.0 % of control | MDA-MB-453 (breast, carcinoma) cell viability (% of control) ([15]; 300 nM): 29.8 ± 1.5 % of control | IC50 [16]: 44 nM
